The subject of assay [1] is rat embrional fibroblasts (REF). Nature of the assay: Number of REF cells throughout 72-hr incubation. The format is cell-based. As to the method: (§1) To this end, these substances had been incubated for 72 hours with cells of rat embrional fibroblasts (REF) and the same cells, transformed with adenoviral E1A gene in complementation with ras-oncogene (e-ras cell line). Subsequent evaluation of the cellularity of experimental samples was carried out by counting the quantity of cell per milliliter (for REF cell line) or clones in dish (for e-ras cell line).
(§2) Cells were cultivated on DMEM medium supplemented with 10% fetal calf serum and […] gentamicin. Cultivation was carried out in Petri dishes.
(§3) REF cells was cultivated with initial density of 800 000 cell per mL, evaluation of the cellularity was performed at 0, 24, 48 and 72 hours of incubation with the test articles.
(§4) For the test-system for estimation of apoptosis regulation UV-induced cell death was triggered in a dose of 4 Dj. Test articles were added immediately after irradiation. Then, the quantity of cell per milliliter (for REF cell line) or clones in dish (for e-ras cell line) were monitored every 24 hours. For determination of DNA-fragmentation the electrophoresis in agarose gel was used at standard settings.

Assay [2] relates to e-ras cell line (REF transformed with E1A and ras-oncogene). Description: Number of clones of e-ras cells throughout 72-hr incubation. The format is cell-based, rat. As to the method:
as §1, §2
(§5) E-ras cells were seeded at a cell density of 300 cells per 5 cm dish. 7 days after growth of e-ras cells had been started the quantity of clones was evaluated and the test articles were added into the dishes.
as §4

The test system of assay [3] is leukemia L1210 cells. Nature of the assay: Leukemia L1210 in mice: ascitic fluid and survival (Example 14). To be noted: for Accumulation of ascitic (weight gain, %): leukemia L1210; for Mean survival time: mice inoculated with leukemia L1210 cells.
Method: (§6) An influence of 7 day course of test article daily administration was studied in respect of tumor progression, which was estimated using the two integral indices: pace of mouse weight gain due to accumulation of ascitic fluid, and by animal mean survival time after inoculation.
(§7) The study was carried out on DBA/2 mice weighing 18-21 g. First, tumor cell passage was performed using 6 animals for each cell line. For this, cells kept at the temperature of the liquid nitrogen were de-frozen and adjusted to the concentration of 5×10^6 cells/mL by sterile Hanks' solution. Then, 6 mice were intra peritoneally inoculated with 0.2 mL of each line cellular suspension.
(§8) Ascitic fluid was collected 6 days after the inoculation with L1210 cells, 8 days after the inoculation with P388 ones and 18 days after inoculation with Erlich adenocarcinoma cells. Thus obtained, the samples of passaged tumor cells were used for the main experiments. The fluid liquid was dissolved by sterile Hanks' solution so that cell concentration be 5×10^6 cells/mL for P388 cells and Erlich adenocarcinoma cells, 5×10^5 cells/mL for L1210 cells.
(§9) Eleven groups of animals with no less than 15 mice each were formed for experiments with either tumor cell line. Mice were inoculated with 0.2 mL of resultant cell suspensions per mouse (10^6 P388 and Erlich adenocarcinoma cells/mouse, and 10^5 L1210 cells/mouse). 24 hours after the tumor cells inoculation, animals were given the first injections of the test articles or vehicles. The test article injections were made daily till the 14th day of the experiment or till the animal death. The volume of solutions injected comprised 0.01 mL/g body weight.
(§10) #1—intact animals receiving imitation of tumor cell inoculation (injection of normal saline) which further were treated with normal saline throughout the entire experiment;
(§11) #2—control animals, inoculated with tumor cells, which further were treated with test article vehicle (normal saline);
The subject of assay [4] is rat embrional fibroblasts (REF) after UV-irradiation. Description: Number of REF cells after UV-irradiation. The format is cell-based. How it is done: as §1, §2, §3, §4
The test system of assay [5] is leukemia P388 cells. Nature of the assay: Leukemia P388 in mice: ascitic fluid and survival (Example 14). To be noted: for Accumulation of ascitic (weight gain, %): leukemia P388; for Mean survival time: mice inoculated with leukemia P388 cells.
Method: as §6, §7, §8, §9, §10, §11
The test system of assay [6] is e-ras cells after UV-irradiation. Nature of the assay: Number of clones of e-ras cells after UV-irradiation. The format is cell-based, rat. As to the method:
as §1, §2, §5, §4

Assay [7] relates to Erlich adenocarcinoma cells. Description: Erlich adenocarcinoma in mice: ascitic fluid and survival (Example 14). The conditions noted are these: for Accumulation of ascitic (weight gain, %): Erlich adenocarcinoma; for Mean survival time: mice inoculated with Erlich adenocarcinoma cells.
Method: as §6, §7, §8, §9, §10, §11

Each structure is given as a SMILES string.

In the case of `C[S+](C)[O-]` [7% DMSO], the “number of REF cells (M ± m)” value in assay [1] (0 hours of incubation) was 801 ± 12 × 10^3 cells; in assay [1] (24 hours of incubation) it was 1420 ± 17 × 10^3 cells; in assay [1] (48 hours of incubation) it was 2651 ± 36 × 10^3 cells; in assay [1] (72 hours of incubation) it was 5298 ± 39 × 10^3 cells. The “number of clones of e-ras cells (M ± m)” value in assay [2] (0 hours of incubation) is 268 ± 11; in assay [2] (24 hours of incubation), 271 ± 2; in assay [2] (48 hours of incubation), 268 ± 8; in assay [2] (72 hours of incubation) it was 243 ± 6. In addition, the “Accumulation of ascitic (weight gain, %)” value in assay [3] (number of injection 0) amounted to 0.51 ± 0.1%; in assay [3] (number of injection 3), 6.4 ± 1.4%; in assay [3] (number of injection 7), 23.6 ± 2.6%; in assay [5] (number of injection 0) it was 0.5 ± 0.1%; in assay [5] (number of injection 3) it was 5.4 ± 1.4%; in assay [5] (number of injection 7), 19.6 ± 1.6%. The “Accumulation of ascitic (weight gain, %)” value in assay [7] (number of injection 0) was 0.5 ± 0.2%; in assay [7] (number of injection 3) it was 11.4 ± 1.1%; in assay [7] (number of injection 7), 24.6 ± 2.2%. The results for the Mean survival time in assay [3], in assay [5] and in assay [7] were 10.2 ± 0.8, 20.6 ± 1.8 and 10.3 ± 1.8, respectively. Further, the “number of REF cells after UV-irradiation (M ± m)” value was 801 ± 12 × 10^3 cells in assay [4] (0 hours), 420 ± 17 × 10^3 cells in assay [4] (24 hours), 251 ± 36 × 10^3 cells in assay [4] (48 hours) and 208 ± 39 × 10^3 cells in assay [4] (72 hours). The “number of clones of e-ras cells after UV-irradiation (M ± m)” value in assay [6] (0 hours) came to 268 ± 11; in assay [6] (24 hours), 171 ± 2; in assay [6] (48 hours), 108 ± 8; in assay [6] (72 hours), 103 ± 6.
`NCCSSCCNC(=O)CNC(=O)C(CSSCC(NC(=O)CCC(N)C(=O)O)C(=O)NCC(=O)O)NC(=O)CCC(N)C(=O)O` (stereo not drawn) [S-thioeethylamine-GSSG + normal saline]: the “Accumulation of ascitic (weight gain, %)” value is reported as 0.7 ± 0.2% in assay [5] (number of injection 0), 2.1 ± 0.4% in assay [5] (number of injection 3) and 8.2 ± 1.2% in assay [5] (number of injection 7). In addition, in assay [5], the Mean survival time was determined as 28.2 ± 0.8.
For the molecule `NCCSSCCNC(=O)CNC(=O)C(CSSCC(NC(=O)CCC(N)C(=O)O)C(=O)NCC(=O)O)NC(=O)CCC(N)C(=O)O` (stereo not drawn) [S-thioethylamine-GSSG + normal saline], the “Accumulation of ascitic (weight gain, %)” value in assay [3] (number of injection 0) is 0.77 ± 0.2%; in assay [3] (number of injection 3), 3.1 ± 0.4%; in assay [3] (number of injection 7) it was 92 ± 1.2%; in assay [7] (number of injection 0), 0.8 ± 0.1%; in assay [7] (number of injection 3), 3.2 ± 0.6%; in assay [7] (number of injection 7) it was 10.2 ± 2.2%. Also, the values for the Mean survival time in assay [3] and in assay [7] were 19.2 ± 0.8 and 16.2 ± 1.2, respectively.
With `NCCSSCCNC(=O)CNC(=O)C(CSSCC(NC(=O)CCC(N)C(=O)O)C(=O)NCC(=O)O)NC(=O)CCC(N)C(=O)O` (stereo not drawn) [S-thioethylamine-GSSG in normal saline], the “number of REF cells (M ± m)” value in assay [1] (0 hours of incubation) is 789 ± 21 × 10^3 cells; in assay [1] (24 hours of incubation), 1422 ± 14 × 10^3 cells; in assay [1] (48 hours of incubation), 2602 ± 43 × 10^3 cells; in assay [1] (72 hours of incubation), 5112 ± 168 × 10^3 cells. For the same molecule, the “number of clones of e-ras cells (M ± m)” value in assay [2] (0 hours of incubation) was determined as 286 ± 14; in assay [2] (24 hours of incubation), 202 ± 14; in assay [2] (48 hours of incubation) it was 156 ± 10; in assay [2] (72 hours of incubation), 112 ± 12. Also, the “number of REF cells after UV-irradiation (M ± m)” value in assay [4] (0 hours) was 789 ± 21 × 10^3 cells; in assay [4] (24 hours), 422 ± 14 × 10^3 cells; in assay [4] (48 hours), 260 ± 23 × 10^3 cells; in assay [4] (72 hours), 212 ± 16 × 10^3 cells. The “number of clones of e-ras cells after UV-irradiation (M ± m)” value in assay [6] (0 hours) came out at 286 ± 14; in assay [6] (24 hours) it was 182 ± 14; in assay [6] (48 hours), 116 ± 8; in assay [6] (72 hours), 82 ± 4.
For the molecule `NCCSSCCNC(=O)CNC(=O)C(CSSCC(NC(=O)CCC(N)C(=O)O)C(=O)NCC(=O)O)NC(=O)CCC(N)C(=O)O` (stereo not drawn) [S-thioethylamine-GSSG, S-thioethylamine-glutathione disulfide], the “apoptosis of normal cells (REF line)” value in assay [1] (72-hr incubation) is on record as “didn't promote apoptosis of normal cells”. The “death of transformed e-ras cells” value in assay [2] (72-hr incubation) was “induce a transformed cell death”. Further, in assay [4], the “UV-induced apoptosis of normal cells (REF line)” value is “do not promote the apoptosis of normal cells”. In addition, the “death of transformed e-ras cells after UV-irradiation” value in assay [6] was “potentiate death of the transformed cells”.

The values are drawn from US6492329B1, “Cytokine and hemopoietic factor endogenous production enhancer and methods of use thereof” (Novelos Therapeutics, Inc., priority 1995, dated 2002).
